We go through two molecules from patent publication US20040022850A1, “Modified release formulation” (priority 2000, published 2004).

Converted amounts (≈) assume the structure as drawn.

The series is described as follows: Solubility of the model drugs. It counts as physicochemical.

Turning to `CC(C)n1c(/C=C/C(O)CC(O)CC(=O)O)c(-c2ccc(F)cc2)c2ccccc21` (centres unmarked) [fluvastatin], the solubility was over 50000 µg/mL.

`CCCCOC(=O)c1ccc(O)cc1` [butyl paraben] displayed a solubility of 200 µg/mL (≈ 1030 µM).
